The text below walks through data of patent publication US9737535B2, “Methods for treating cancer using TOR kinase inhibitor combination therapy comprising administering substituted pyrazino[2,3-b]pyrazines” (Signal Pharmaceuticals, LLC, priority 2014, dated 2017).

Assay in all cases: Anti-proliferation assay (ATPLite), Chalice synergy score
Holding throughout (format): cell-based
(In general: Cellular ATP, detected with luciferase, serves as a proxy for viable cell number.)

One experiment concerns HCC-1937. The note with it: Compound 1 in combination with the named second active agent, 72 h, mean of n = 3 experiments in triplicate. An excerpt:
(§1) Cells were thawed from a liquid nitrogen preserved state.
(§2) The calculation for synergy score is provided below.
(§3) If T≧V0:100*[1−(T−V0)/(V−V0)]

The next experiment relates to BT-549. The note with it: Compound 1 in combination with the named second active agent, 72 h, mean of n = 3 experiments in triplicate.
From the text: as §1, §2, §3

The subject of another experiment is MDA-MB-436. The note with it: Compound 1 in combination with second active agent, mean self-cross + 2σ threshold 1.91.
From the text: as §1, §2, §3

The test system of the next experiment is HCC-1428. Particulars: Compound 1 in combination with the named second active agent, 72 h, mean of n = 3 experiments in triplicate.
From the text: as §1, §2, §3

The next experiment has as its system MDA-MB-157. The note with it: Compound 1 in combination with second active agent, mean self-cross + 2σ threshold 4.68.
From the text: as §1, §2, §3

A further experiment has as its system MCF7. Particulars: Compound 1 in combination with second active agent, mean self-cross + 2σ threshold 3.07.
From the text: as §1, §2, §3

Another experiment concerns Hs-578-T. The note with it: Compound 1 in combination with second active agent, mean self-cross + 2σ threshold 4.09.
From the text: as §1, §2, §3

Another experiment concerns MDA-MB-231. Particulars: Compound 1 in combination with second active agent, mean self-cross + 2σ threshold 2.61.
From the text: as §1, §2, §3

The test system of the next experiment is HCC-1806. Particulars: Compound 1 in combination with the named second active agent, 72 h, mean of n = 3 experiments in triplicate.
From the text: as §1, §2, §3

For another experiment, the system named is BT-474. Particulars: Compound 1 in combination with the named second active agent, 72 h, mean of n = 3 experiments in triplicate.
From the text: as §1, §2, §3

For a further experiment, the system named is HCC70. The note with it: Compound 1 in combination with second active agent; HCC-70; mean self-cross + 2σ threshold 3.45.
From the text: as §1, §2, §3

The subject of the next experiment is HCC-1500. Further details: scale not given here. Particulars: Compound 1 in combination with the named second active agent, 72 h, mean of n = 3 experiments in triplicate.
From the text: as §1, §2, §3

The subject of the next experiment is HCC-1187. Also noted: scale not given here. Particulars: Compound 1 in combination with the named second active agent, 72 h, mean of n = 3 experiments in triplicate.
From the text: as §1, §2, §3

A further experiment has as its system BT-20. Further details: scale not given here. Particulars: Compound 1 in combination with the named second active agent, 72 h, mean of n = 3 experiments in triplicate.
From the text: as §1, §2, §3

Another experiment relates to MDA-MB-468. The note with it: Compound 1 in combination with second active agent, mean self-cross + 2σ threshold 4.66.
From the text: as §1, §2, §3

Structures can show the parent of a compound that is named as a salt.

On to `Oc1c2ccccc2c2c3c(cccc13)N=N2` [SP 600125], for which the Synergy score with HCC-1937 came to 0.87; with BT-549 it was 1.47; in the experiment with MDA-MB-436 it was 0.79; in the experiment on HCC-1428, 1.44; in the experiment with MDA-MB-157, 1.18; in the experiment with MCF7, 0.75. For the same compound, the Synergy score worked out at 0.97 in the experiment with Hs-578-T; 0.65 with MDA-MB-231; 1.16 with HCC-1806; 0.72 with BT-474; 3.49 in the experiment with HCC70; 1.15 in the experiment on HCC-1500. The Synergy score with HCC-1187 was found to be 5.59; in the experiment on BT-20, 0.00.
Take `COc1ccc(C2=N[C@@H](c3ccc(Cl)cc3)[C@@H](c3ccc(Cl)cc3)N2C(=O)N2CCNC(=O)C2)c(OC(C)C)c1` [Nutlin-3]: the Synergy score is on record as 0.58 with HCC-1937; 0.40 in the experiment on BT-549; 0.50 in the experiment on MDA-MB-436; 0.33 in the experiment with HCC-1428; 0.66 with MDA-MB-157; 2.05 with MCF7. Further, the Synergy score in the experiment with Hs-578-T is 1.65; in the experiment on MDA-MB-231, 0.27; with HCC-1806 it was 0.79; in the experiment with BT-474, 0.34; in the experiment on HCC70, 2.72; in the experiment with HCC-1500, 2.54. Besides, the Synergy score with HCC-1187 was found to be 2.08; with BT-20, 0.27.
With `O=C(/C=C/c1cccnc1)NCCCCC1CCN(C(=O)c2ccccc2)CC1` [FK-866], the Synergy score in the experiment on HCC-1937 turned out to be 0.60; with BT-549, 0.11; in the experiment on MDA-MB-436, 0.97; in the experiment with HCC-1428, 0.20; in the experiment on MCF7, 0.04; in the experiment on Hs-578-T, 5.32. The Synergy score in the experiment with HCC-1806 amounted to 0.00; in the experiment on MDA-MB-468, 0.28; in the experiment on BT-474 it was 0.60; with HCC70, 0.30; in the experiment on HCC-1500, 1.15; in the experiment on HCC-1187 it was 0.25. In addition, the Synergy score with BT-20 is recorded as 0.30.
On to `CC(C)(C)Cn1c(N)nc2ccc(-c3[nH]c(C(C)(C)C)nc3-c3ccc(F)cc3)nc21` [LY2228820], for which the Synergy score amounted to 1.26 in the experiment with BT-549; 1.32 in the experiment on MDA-MB-436; 1.80 with HCC-1428; 5.64 in the experiment on MDA-MB-157; 3.76 with MCF7; 2.18 in the experiment on MDA-MB-231. Further, the Synergy score is 2.81 with HCC-1806; 5.77 in the experiment with MDA-MB-468; 2.81 in the experiment on BT-474; 3.65 in the experiment with HCC70; 3.91 in the experiment with HCC-1500; 0.80 in the experiment on HCC-1187. Also, the Synergy score with BT-20 was 0.20.
Take `N.N.O=C([O-])C1(C(=O)[O-])CCC1.[Pt+2]` [Carboplatin]: the Synergy score with HCC-1937 is recorded as 2.46; with BT-549, 0.72; with MDA-MB-436, 1.10; in the experiment with HCC-1428, 0.52; in the experiment with MDA-MB-157, 1.77; with MCF7, 0.80. Moreover, the Synergy score in the experiment on Hs-578-T stood at 1.65; with MDA-MB-231, 0.45; in the experiment with HCC-1806, 0.44; in the experiment with MDA-MB-468 it was 7.18; with BT-474 it was 0.30; with HCC70 it was 2.26. Besides, the Synergy score amounted to 2.20 in the experiment on HCC-1187 and 0.98 in the experiment with BT-20.
Regarding CHIR98014, the Synergy score was 0.63 with HCC-1937; 0.49 with BT-549; 0.64 in the experiment on MDA-MB-436; 0.72 with HCC-1428; 3.17 with MDA-MB-157; 0.29 in the experiment on MCF7. Besides, the Synergy score in the experiment with Hs-578-T is given as 5.48; with MDA-MB-231 it was 3.91; with HCC-1806 it was 1.56; in the experiment with MDA-MB-468, 3.00; with BT-474, 0.02; in the experiment with HCC70 it was 0.82. Besides, the results for the Synergy score in the experiment with HCC-1187 and in the experiment with BT-20 were 3.13 and 0.17, respectively.
As to `COc1cccc2c1C(=O)c1c(O)c3c(c(O)c1C2=O)C[C@@](O)(C(=O)CO)C[C@@H]3O[C@H]1C[C@H](N)[C@H](O)[C@H](C)O1` [Doxorubicin Hcl, Doxorubicin HCl], the Synergy score with HCC-1937 was 6.92; in the experiment with BT-549 it was 4.78; with MDA-MB-436 it was 3.89; in the experiment on HCC-1428, 0.96; in the experiment with MDA-MB-157 it was 8.50; in the experiment on Hs-578-T, 5.85. Also, the Synergy score in the experiment on HCC-1806 came out at 3.55; with MDA-MB-468 it was 6.36; in the experiment on BT-474, 1.25; in the experiment with HCC70 it was 4.00; in the experiment on HCC-1500 it was 2.70; in the experiment with HCC-1187, 4.45. Besides, the Synergy score in the experiment with BT-20 is 3.96.
Take `O=C(Nc1cccc(Nc2ncc(Br)c(NCCc3c[nH]cn3)n2)c1)N1CCCC1` [BX-912]: the Synergy score worked out at 0.44 in the experiment with HCC-1937; 1.52 in the experiment with BT-549; 2.50 in the experiment with MDA-MB-436; 2.05 with HCC-1428; 6.65 with MDA-MB-157; 0.69 with MCF7. The Synergy score in the experiment on Hs-578-T was found to be 6.07; in the experiment with HCC-1806, 0.57; with MDA-MB-468, 8.29; in the experiment with BT-474, 0.87; in the experiment on HCC70 it was 6.05; with HCC-1500, 2.11. Also, the Synergy score with HCC-1187 is recorded as 4.10; with BT-20 it was 1.32.
In the case of `CC(=O)c1c(C)c2cnc(Nc3ccc(N4CCNCC4)cn3)nc2n(C2CCCC2)c1=O` [PD-0332991], the Synergy score in the experiment on HCC-1937 was found to be 0.55; in the experiment with BT-549, 1.10; in the experiment with MDA-MB-436 it was 0.44; in the experiment on HCC-1428, 2.01; in the experiment on MDA-MB-157 it was 0.73; with MCF7, 2.48. The Synergy score in the experiment on Hs-578-T was 0.75; with MDA-MB-231, 2.88; in the experiment with HCC-1806, 1.54; in the experiment with MDA-MB-468, 2.12; in the experiment on BT-474, 0.31; in the experiment on HCC70 it was 2.17. The Synergy score was 2.71 in the experiment on HCC-1500 and 2.76 with HCC-1187.
Take `CNC(=O)c1ccc(-c2cnc3ncc(Cc4ccc5ncccc5c4)n3n2)cc1F` [INCB28060]: the Synergy score with HCC-1937 is on record as 0.71; in the experiment on BT-549, 0.66; in the experiment with MDA-MB-436, 0.49; with HCC-1428, 0.75; in the experiment with MDA-MB-157, 0.97; with MCF7, 0.92. Also, the Synergy score is reported as 0.85 with Hs-578-T; 0.34 in the experiment on MDA-MB-231; 0.62 with HCC-1806; 0.80 in the experiment with MDA-MB-468; 2.35 in the experiment with BT-474; 0.75 with HCC70. Also, the Synergy score in the experiment with HCC-1500 is 0.52; in the experiment on HCC-1187, 2.94.
For `NS(=O)(=O)OC[C@@H]1C[C@@H](n2ccc3c(N[C@H]4CCc5ccccc54)ncnc32)C[C@@H]1O` [MLN-4924], the Synergy score in the experiment on HCC-1937 stood at 9.15; with BT-549, 2.83; in the experiment on HCC-1428, 3.68; in the experiment on MDA-MB-157 it was 6.73; in the experiment with MCF7, 0.94; with Hs-578-T, 3.55. In addition, the Synergy score with HCC-1806 was 2.90; in the experiment on MDA-MB-468, 15.10; in the experiment on BT-474 it was 8.59; in the experiment with HCC70 it was 0.46; in the experiment with HCC-1500, 1.31; in the experiment with HCC-1187, 7.09. Moreover, the Synergy score with BT-20 stood at 1.78.
`COc1cc2nccc(Oc3ccc(NC(=O)C4(C(=O)Nc5ccc(F)cc5)CC4)cc3)c2cc1OC` [XL184]: the Synergy score with HCC-1937 is listed as 2.15; in the experiment on BT-549 it was 0.52; with MDA-MB-436, 0.90; in the experiment on HCC-1428 it was 1.19; in the experiment on MCF7, 4.34; in the experiment with Hs-578-T it was 3.19. Besides, the Synergy score in the experiment on HCC-1806 is reported as 1.44; in the experiment with MDA-MB-468, 1.84; with BT-474 it was 1.51; in the experiment with HCC70, 1.47; with HCC-1500, 1.20; with HCC-1187, 1.29. Further, in the experiment with BT-20, the Synergy score turned out to be 3.67.
